Measurements taken from ChEMBL document CHEMBL5576090, “Structural Diversification of Pyrazinone Metabolites via Spontaneous Oxa-Michael Addition in Staphylococcus xylosus” (2024).
Residues, ends and D or L forms follow the SMILES beside them. *: point of attachment. Boc = CC(C)(C)OC(=O)*

Assays:
Format in all cases: functional
[1] = Antimigratory activity against mouse MTV/TM-011 cells assessed as wound closure measured after 24 hrs by optical microscopic analysis relative to control; set-up: concentration or dose not given beside the values
[2] = system: Escherichia coli; test: Antibacterial activity against Escherichia coli measured after 12 hrs
[3] = system: Acinetobacter baumannii; test: Antibacterial activity against Acinetobacter baumannii measured after 12 hrs
[4] = system: Bacillus subtilis; test: Antibacterial activity against Bacillus subtilis measured after 12 hrs
[5] = system: Staphylococcus aureus; test: Antibacterial activity against methicillin-resistant Staphylococcus aureus measured after 12 hrs
[6] = system: Saccharomyces cerevisiae; test: Antifungal activity against Saccharomyces cerevisiae measured after 24 hrs
[7] = Antimigratory activity against mouse MTV/TM-011 cells assessed as wound closure at 20 uM measured after 24 hrs by optical microscopic analysis relative to control

| Compound | Activity [1] [%] | MIC [2] [µM] | MIC [3] [µM] | MIC [4] [µM] | MIC [5] [µM] | MIC [6] [µM] | Activity [7] [%] |
| --- | --- | --- | --- | --- | --- | --- | --- |
| O=c1[nH]cc(F)c(=O)[nH]1 [FLUOROURACIL] | 65 | – | – | – | – | – | – |
| CC(C)(O)c1ncc(Cc2ccc(O)cc2)[nH]c1=O | 65 | > 100 | > 100 | > 100 | > 100 | > 100 | – |
| CC(C)[C@H](NC(=O)OC(C)(C)C)C(=O)N[C@H](C=O)Cc1ccccc1 (Boc-Val-Phe-aldehyde) | – | > 100 | > 100 | > 100 | > 100 | > 100 | 65 |
| CC(C)c1ncc(Cc2ccccc2)nc1O | 72 | > 100 | > 100 | > 100 | > 100 | > 100 | – |
| COC(C)(C)c1ncc(Cc2ccccc2)[nH]c1=O | 65 | > 100 | > 100 | > 100 | > 100 | > 100 | – |
| CC(C)c1ncc(Cc2ccc(O)cc2)[nH]c1=O | 65 | > 100 | > 100 | > 100 | > 100 | > 100 | – |
| CC(C)Cc1cnc(C(C)C)c(=O)[nH]1 | 65 | > 100 | > 100 | > 100 | > 100 | > 100 | – |
| CC(C)(O)c1ncc(Cc2ccccc2)[nH]c1=O | 70 | > 100 | > 100 | > 100 | > 100 | > 100 | – |
| COC(C)(C)c1ncc(Cc2ccc(O)cc2)[nH]c1=O | 65 | > 100 | > 100 | > 100 | > 100 | > 100 | – |
